Consider 1 substance from patent publication US20240165196A1, “Beta-Lactamase Inhibitors” (VIB VZW, priority 2021, published 2024).

Common to all, as to format: cell-based
Assay [1] has as its system E. coli strain lacking TEM (ATCC 25922). Briefly: Structured Illumination Microscopy of peptide-treated bacteria lacking TEM. Conditions: same treatment as UZ_TEM104. The protocol:
(§1) FIGS. 3A-3P. […] Three replicates are shown for each condition. […] A single representative image is shown. […] Three replicates are shown for each condition. (FIG. 3E) [Left] […] [Middle] […] [Right] […] A single representative image is shown. […] A single representative image is shown. […] A single representative image is shown. […] A single representative blot is shown. […] 106 cells were analysed for the plot.
(§2) Moreover, we confirmed the presence of the protein in the correct band using mass spectrometry proteomics. We repeated this with a strain expressing SHV-154, blotting with a polyclonal rabbit antibody raised against the recombinant SHV enzyme described above (FIG. 3K).
The bacterial cultures were washed with PBS and the number of the bacteria were adjusted to 10^8-10^9 cells/mL. […] Then, cells were treated with LCO dyes (pFTAA; Amytacker™ 680 or Amytacker™ 545: final concentration of 0.5 μM; Ebba Biotech, Sweden) for at least 90 min. The absorption, emission and excitation spectra for each dye were measured based on the standard Ebbabiotec advice (ebbabiotech.com).
Bacteria were fixed by adding 2.5% paraformaldehyde and 0.04% glutaraldehyde (final concentrations) to the culture media, followed by incubation at room temperature for 15 mins and 30 mins on ice. Bacteria were then washed in PBS and resuspended in GTE buffer (50 mM glucose, 25 mM Tris, and 10 mM EDTA, pH 8.0). […]

For assay [2], the system named is uro-pathogenic E. coli strain (UPEC strain blaTEM-1). Briefly: MIC of ampicillin on the uro-pathogenic strain. Conditions: 32 μg/ml of TEM3.2 or tazobactam. The protocol: Vehicle alone (0.9% NaCl) was also administered (IV).
Determination of MIC values using the broth microdilution in the 96-well plate (BD Biosciences, Belgium) according to the EUCAST guideline, which was performed in 96-well polystyrene flat bottom microtiter plates (BD Biosciences). Briefly, a single colony was inoculated into 5 mL Difco™ Mueller Hinton Broth (BD Biosciences Ref 275730) and grown to the end-exponential growth phase in a shaking incubator at 37° C. Cultures were subsequently diluted to an MacFarland (0.5 optical density) then the culture was diluted to reach 10^6 CFU/mL in fresh MHB medium. 50 μl of different concentration of peptides ranging from 128 to 2 μg/mL were serially diluted to the sterile 96-well plate in MHB. 50 μL of the diluted bacteria in MHB were pipetted into 96-well plates to reach the final volume of 100 μL. The bacteria grown with the maximum concentration of carrier and medium were considered as positive and negative controls, respectively. The plates were statically incubated overnight at 37° C. to allow bacterial growth. OD was measured at 590 nm a multipurpose ultraviolet-visible plate reader, and the absorbance of the growth bacteria was measured using absorbance reader. Bacterial growth was also visually inspected and agreed well with the OD reading.

In assay [3] the test system is E. coli K12 MG1655 overexpressing GFP. In words: Structured Illumination Microscopy of bacterial strains stably expressing GFP or FP fusions. The note with it: strains expressing GFP or proteins fused to FPs, treated with TEM3.2. The protocol:
as §1, §2
Bacteria were fixed by adding 2.5% paraformaldehyde and 0.04% glutaraldehyde (final concentrations) to the culture media, followed by incubation at room temperature for 15 mins and 30 mins on ice. Bacteria were then washed in PBS and resuspended in GTE buffer (50 mM glucose, 25 mM Tris, and 10 mM EDTA, pH 8.0). Directly preceding microscopic analysis, cells were transferred to a glass slide and covered with a coverslip. Imaging was performed using a Zeiss Elyra S.1 system in the LiMoNe Light microscopy facility of VIB-KU Leuven.

Consider Ac-RLTAFLHNRRPRLTAFLRQRR-NH2 [TEM3.2], for which the inclusion body formation entry in assay [1] is recorded as “only very limited inclusion body formation”. Also, in assay [2], the “MIC Ampicillin in the presence of additive” value stood at 25 µg/mL. Also, in assay [3], the “induced aggregation of fluorescent proteins” value is recorded as “did not observe any induced aggregation”.
